Results as given in a melting point compilation (Tetko et al.; mined from patent text by program, amines drawn as free bases though some values may be those of a salt).

SMILES	melting point
OC1CCc2ccc(Oc3c(F)cc(C(F)(F)F)cc3Cl)cc21 (racemic)	101 to 102 °C
CCc1nnc2c(Cl)nc3cc(F)ccc3n12	203 to 205 °C
CC(C)(C)c1cc(N=C(O)c2cc(C(O)=Nc3cc(C(C)(C)C)c(O)c(C(C)(C)C)c3)c(C(=O)O)cc2C(=O)O)cc(C(C)(C)C)c1O	304 to 306 °C
COc1cc(NC(=O)Nc2c(-c3ccccc3Cl)c3cc(C)ccc3oc2=O)cc(OC)c1OC(C)=O	238 to 240 °C
N#Cc1c2c(c3c(c1N1CCCCC1)CCc1ccccc1-3)-c1ccccc1C2	170 to 172 °C
COC(=O)c1ccc(COC(=O)Nc2ccc(-c3ccccc3)n(CC(=O)NC(Cc3ccccc3)C(=O)C(F)(F)F)c2=O)cc1 (stereo not given)	186 to 189 °C
NC(=O)c1ccc(F)c2c1CC(N(CCCc1c[nH]c3c(Cl)cccc13)C1CCC1)CO2 (stereo not given)	154 to 163 °C
COc1ccc(-c2cnc3c(-c4ccsc4)cnn3c2)cc1	191 to 193 °C
O=C(c1ccc(Br)s1)c1c(F)c(F)cc(F)c1F	51 to 54 °C
CSc1c(C(=O)O)ccc(Br)c1F	126 to 129 °C
Cc1cc(OC(C)(C)C(=O)O)c(C)c(Br)c1C	151 to 153 °C
Cc1cc(=O)c2ccc(OCCCN3CCC(NC(=O)c4ccccc4)CC3)cc2o1	173 to 175 °C
Cc1nc(C)c2c(n1)N(Cc1ccc(-c3ccccc3-c3nnn[nH]3)cc1)C(=O)C(O)C2 (stereo not given)	154 to 156 °C
CSC(C)(C(=O)O)c1ccc(CC(C)C)cc1 (stereo not given)	89 to 92 °C
COc1cc(NC(=O)c2cc(Br)ccc2O)cc(OC)c1	207 to 209 °C
CCCCOc1nc(N)c2[nH]c(=O)n(CCCNCc3cccc(C(=O)OC)c3)c2n1	214 to 218 °C
Cc1cc(-c2cc(O)c(SCCc3ccccc3)c(=O)o2)ccc1OCc1cccnc1	149 to 151 °C
CC(C)Oc1cc(CCCOc2cc(CCC(=O)O)n(-c3ccccc3)n2)n(Cc2ccc(Cl)cc2Cl)n1	146 to 148 °C
COc1cc(Nc2ncnc3cc(OCC4CCCCO4)c(OC)cc23)c(OC)cc1Cl (stereo not given)	203 to 209 °C
CCOC(=O)c1ccc(Cl)c(S(=O)(=O)Cl)c1	143 to 145 °C
COc1cc2oc(=O)c3c(c2cc1OC)CCN(CC(C)=O)C3	168 to 172 °C
CC(C(=O)O)c1cc(=O)n(Cc2ccc(Cl)cc2)c2ccc(Cl)cc12 (stereo not given)	192 to 194 °C
N#Cc1cc(F)c(-n2c(=O)cc(C(F)(F)F)[nH]c2=O)cc1Oc1ccc2ccccc2c1	92 °C
Cc1cc(C)c2c(-c3coc4cc(C)cc(C)c34)coc2c1	98 to 100 °C
CCOC(=O)[C@@H]1O[C@@H]1c1ccc(C)cc1	66 °C

SMILES	melting point
CC(=O)SCc1ccc(I)cc1	40 to 41 °C
COC(=O)c1ccccc1S(=O)(=O)NC(=O)Nc1nc(C)cc(OC(F)F)n1	162 to 164 °C
COc1ccc(C(=O)CC(=O)C(F)(F)C(F)(F)F)cc1OC	72 °C
CC1C(=O)N(C(=O)NS(=O)(=O)c2ccc(Cl)cc2)N1C(c1ccccc1)c1ccccc1 (stereo not given)	124 to 129 °C
CCOc1ccc2nc(Cl)c(C=NOC)cc2c1	142 to 144 °C
CCCCC1(O)CCN(C(=O)C(c2ccccc2)n2cnc3[nH]ncc3c2=S)CC1 (stereo not given)	98 to 102 °C
NC(=O)C1Cc2cc(F)ccc2N1 (stereo not given)	197 to 199 °C
O=C(CBr)N[C@H](Cc1ccc(C(F)(F)F)cc1)[C@@H](O)c1ccc(F)cc1 (racemic)	151 to 152 °C
CNC(=O)C1=CC(C)(CF)Oc2ccc([N+](=O)[O-])cc21 (stereo not given)	171 to 173 °C
O=C(Nc1ccc(-n2nc(C(F)(F)F)cc2C2CC2)nc1)c1cccc(F)c1F	151 to 156 °C
CC(C)CNC1=NS(=O)(=O)c2sc(Cl)cc2N1	262 to 264 °C
CSCCN(C)C(=O)N(C)c1cnc(-c2cncc(F)c2)s1	68 to 69 °C
COc1ccc(OC)c([Si](C)(C)COc2cc(C(C)(C)C)c(O)c(C(C)(C)C)c2)c1	103 °C
Oc1ccc(C2OCN3C2=CCC3CCc2ccccc2)cc1 (stereo not given)	176 °C
COc1ccc(C2=NN(c3ccc(C(C)(C)C)cc3)C(=O)[C@H]3CC=CC[C@@H]23)cc1OC (relative stereo)	197 to 199 °C
CCc1cc(C(O)(CC)CC)ccc1-c1cc(OCc2ccc(CO)c(CO)c2)ccc1CC	93 °C
CCc1c(-c2ccc(OC)cc2)c2c(C(=O)O)c(C(=O)O)c3cc(OC)cc1n32	209 to 211 °C
N#CCc1cc2c(cc1CC#N)OCO2	105 to 107 °C
CCCCCCCCCCCCCCCCCCN=Cc1ccc(O)cc1	101 °C
N#CCc1c[nH]c2ccc(NC(N)=O)cc12	200 to 204 °C
CC(C)C(O)(Cn1cncn1)c1ccc(C#CI)cc1 (stereo not given)	122 °C
CN1C(=O)C(=CC(=O)O)SC1=Nc1ccc(Cl)c(Cl)c1	225 to 226 °C
Cc1c(NC(=O)c2ccc(-c3ccccc3)c(F)c2)ccc2cc(CN3CCCCCC3)cnc12	129 to 130 °C
CCCCCCOc1cc(CC#N)c(OCCCCCC)cc1CC#N	96 to 97 °C
COc1ccc(CC(=O)c2c(O)c3cccnc3n(-c3ccccc3)c2=O)cc1OC	161 to 163 °C

SMILES	melting point
CNC(=O)c1cc(-c2ccc(S(C)=O)cc2)c(-c2ccc(F)cc2)s1 (stereo not given)	218 to 220 °C
CC(C(=O)O)c1ccc(C(=O)c2ccc(Cl)cc2)n1C (stereo not given)	139 to 141 °C
N=C(N)Nc1nc(CSCCNC(=O)c2cccc(NS(=O)(=O)c3ccccc3)c2)cs1	175 to 178 °C
COc1cc2c(cc1OC)-c1cc(Cl)nc(=O)n1CC2	235 to 236 °C
O=C1c2c(O)ccc(O)c2C(=O)c2c(NCCN3CCCCC3CO)ccc(NCCN3CCCCC3CO)c21 (stereo not given)	208 to 210 °C
O=S(=O)(NC1(CO)CCCC1)c1ccc2c(Cl)cnc(Cl)c2c1	148 to 150 °C
CCOP(=O)(Cc1nc(Cl)cc(N2CCCC2)n1)OCC	68 to 69 °C
O=C(O)c1cc(C(c2cc(F)ccc2F)S(=O)(=O)c2ccc(Cl)cc2)c(F)cn1 (stereo not given)	208 to 209 °C
NC(=O)[C@H]1CCC[C@H]1C(=O)O (relative stereo)	132 to 133 °C
CCCCC1=Nc2ccccc2SN1	153 to 155 °C
CCCCCCCCCCCCCCCCCC(=S)SCC(C)C(=O)N1CCCC1C(=O)O (stereo not given)	50 to 51 °C
COc1cc2c(cc1OC(C)=O)CCC1C3=CC=C(OC(C)=O)C3(C)CCC21 (stereo not given)	191 to 194 °C
COc1cc(NC(C)=O)c(Cl)cc1C(=O)N=[N+]=[N-]	135 to 140 °C
CCS(=O)C1(Cl)CC2C(Cc3ccccc3)C(=O)N2C1C(=O)OCc1ccccc1 (stereo not given)	118 to 123 °C
COc1ccccc1C(=O)c1cccc(Br)n1	97 to 98 °C
c1ccc(OCCCCCCN2CCN(c3nccs3)CC2)cc1	37 to 39 °C
CS(=O)(=O)Nc1ncc(SCc2ccccc2)s1	159 to 162 °C
Cc1c(F)ccc([N+](=O)[O-])c1Cl	37 to 39 °C
COC1C=C(C)C(=O)CC(C)(C)C1OC(=O)c1ccc([N+](=O)[O-])cc1 (stereo not given)	122 to 123 °C
C#CC12CC3CC(CC(C3)C1)C2	80 to 82 °C
Cc1ccc(S(=O)(=O)C[N+](=O)[O-])s1	73 to 74 °C
O=c1ccc2cnc(Nc3ccccc3)nc2[nH]1	> 350 °C
O=c1n(CCCF)nnn1-c1cc([N+](=O)[O-])c(Cl)cc1F	80 to 81 °C
CCOC(=O)c1ccc(-c2nc(N)sc2Cc2ccc(S(C)(=O)=O)cc2)cc1	206 to 207 °C
CCOC(=O)c1ccc(Cn2c(C)nc3ccc(C(=O)NS(=O)(=O)c4ccccc4)nc32)c(Cl)c1	196 to 197 °C

SMILES	melting point
O=C1CC2(CCCCC2)CN1O	110 °C
Cn1c(CO)nc2cncnc21	122 to 125 °C
Cc1ccccc1C(=O)Nc1ccc(C(=O)N2Cc3cccn3Cc3sccc32)cc1	162 to 188 °C
CCOc1cc2c(cc1S(=O)(=O)NC(=O)NC)C(CNC(=O)c1cc(Cl)ccc1OC)CCO2 (stereo not given)	207 to 208 °C
C=CC(=O)OCCCOc1ccc(-c2ccc(C#N)cc2)cc1	70 °C
CC1=C(C(=O)OCCO)C(c2ccccc2OCc2ccccc2)C([N+](=O)[O-])=C(C)N1 (stereo not given)	183 to 185 °C
O=C(O)COc1ccc2c(c1)OCO2	149 to 151 °C
O=C1NC(=O)C(Cc2ccc(OCCn3nc(-c4ccccc4)c4ccccc4c3=O)cc2)S1 (stereo not given)	198 °C
O=C(O)c1cccc2c(-c3ccccc3)c([N+](=O)[O-])oc12	271 to 272 °C
OCc1cccc(Nc2nc(Oc3ccccc3)nc(Oc3ccccc3Cl)n2)c1	52 to 54 °C
CC(=O)NCC1CC(c2ccc(F)cc2)=NO1 (stereo not given)	167 to 168 °C
CC#COc1ccc2c(=O)c(C)c(-c3ccccc3)oc2c1	179 to 180 °C
COC1CCC2(C)C(=CC(=O)C3C2CCC2(C)C(OC(C)=O)CCC32)C1 (stereo not given)	168 to 170 °C
FC(F)Oc1ccc(-c2nnc(Nc3ccc(Cl)c(Cl)c3)s2)cc1	265 to 266 °C
Cc1ccc2c(c1)CC(=S)N2C	143 to 145 °C
CS(=O)(=O)NC1CCCc2ccc([N+](=O)[O-])cc21 (stereo not given)	150 to 152 °C
O=C(O)C1CCN2c3ccccc3Cc3ccccc3C2C1 (stereo not given)	207 to 209 °C
O=C(O)CCc1oc(N2CCN(c3ccccc3)CC2)nc1-c1ccc(Cl)cc1	177 to 178 °C
CCOC(=O)CCC(C=Cc1ccc(OC)c(OC)c1)=C1SC(=S)NC1=O	178 to 180 °C
CCN(CC)C(=O)c1ccc2ccccc2c1-c1ccsc1	71 to 73 °C
CCc1nc2c(C)cc(C)nc2n1Cc1ccc2oc(-c3cccc(F)c3C(=O)O)c(Br)c2c1	191 to 194 °C
FC(F)Oc1ccc2nc(NC3=NCC4(CN5CCC4CC5)O3)sc2c1 (stereo not given)	223 to 225 °C
Cn1cccc1C(=O)C(C#N)C(=O)Nc1ccc(F)cc1 (stereo not given)	198 to 199 °C
O=C1C(=O)c2ccccc2C2=C1SCC1(CCC(NC(=O)c3cccc(C(F)(F)F)c3)CC1)O2 (stereo not given)	266 to 267 °C
CCOC(=O)C1=C(C)NC(C)=C(C(=O)OCC)C1c1ccccc1C	128 to 130 °C
